Test results reported in the Kinase Knowledgebase extract (Sharma et al. 2016).

The compounds below were run against ROCK2 (human) (UniProt O75116) (assay: Enzyme Assay).
Chain of ROCK2 (human) (O75116 whole entry, looked up): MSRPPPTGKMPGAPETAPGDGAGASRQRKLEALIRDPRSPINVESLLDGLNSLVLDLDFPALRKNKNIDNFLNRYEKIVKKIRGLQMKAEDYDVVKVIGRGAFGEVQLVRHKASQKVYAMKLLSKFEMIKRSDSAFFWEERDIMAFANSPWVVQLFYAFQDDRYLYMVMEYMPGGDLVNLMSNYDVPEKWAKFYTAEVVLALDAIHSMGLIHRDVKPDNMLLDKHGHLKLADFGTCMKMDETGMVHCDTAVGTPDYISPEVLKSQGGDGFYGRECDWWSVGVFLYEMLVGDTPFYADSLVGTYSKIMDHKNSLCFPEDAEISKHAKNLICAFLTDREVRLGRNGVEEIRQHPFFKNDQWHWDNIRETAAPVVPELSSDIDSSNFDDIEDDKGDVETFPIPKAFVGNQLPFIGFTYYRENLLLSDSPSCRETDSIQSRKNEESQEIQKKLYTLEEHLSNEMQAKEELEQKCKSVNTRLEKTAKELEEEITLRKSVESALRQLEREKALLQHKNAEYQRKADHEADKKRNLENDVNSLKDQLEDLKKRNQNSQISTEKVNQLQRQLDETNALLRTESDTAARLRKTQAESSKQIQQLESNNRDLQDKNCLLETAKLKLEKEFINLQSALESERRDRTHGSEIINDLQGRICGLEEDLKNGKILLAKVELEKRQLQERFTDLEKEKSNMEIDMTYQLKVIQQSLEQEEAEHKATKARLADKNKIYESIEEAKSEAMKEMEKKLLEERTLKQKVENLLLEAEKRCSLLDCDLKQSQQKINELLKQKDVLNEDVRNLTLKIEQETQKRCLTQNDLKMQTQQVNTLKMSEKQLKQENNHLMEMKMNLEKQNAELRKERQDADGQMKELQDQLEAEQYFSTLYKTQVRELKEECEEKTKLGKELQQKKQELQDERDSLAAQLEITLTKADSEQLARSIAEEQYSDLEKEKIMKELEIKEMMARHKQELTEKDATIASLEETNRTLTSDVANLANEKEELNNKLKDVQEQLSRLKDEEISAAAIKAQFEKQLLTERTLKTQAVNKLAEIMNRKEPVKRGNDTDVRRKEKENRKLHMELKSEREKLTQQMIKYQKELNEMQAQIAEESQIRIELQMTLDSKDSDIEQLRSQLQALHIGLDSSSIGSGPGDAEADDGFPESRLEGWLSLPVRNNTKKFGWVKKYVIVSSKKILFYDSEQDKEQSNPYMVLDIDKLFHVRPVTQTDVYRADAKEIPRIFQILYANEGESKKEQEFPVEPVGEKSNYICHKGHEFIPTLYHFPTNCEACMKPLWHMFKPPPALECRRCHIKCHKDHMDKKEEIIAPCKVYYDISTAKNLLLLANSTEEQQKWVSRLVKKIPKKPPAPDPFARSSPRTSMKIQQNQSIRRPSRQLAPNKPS

SMILES | Ki [µM]
COc1cc2ncn(-c3cc(OCc4ccccc4C(F)(F)F)c(C(N)=O)s3)c2cc1OC | > 7.94
O=C(Nc1cc(-c2c[nH]c3ncccc23)cc(Cl)n1)c1ccccc1 | > 1

These compounds were tested against MAPK14 (human) (UniProt Q16539) (assay: Enzyme Assay).
Chain of MAPK14 (human) (Q16539 whole entry, looked up): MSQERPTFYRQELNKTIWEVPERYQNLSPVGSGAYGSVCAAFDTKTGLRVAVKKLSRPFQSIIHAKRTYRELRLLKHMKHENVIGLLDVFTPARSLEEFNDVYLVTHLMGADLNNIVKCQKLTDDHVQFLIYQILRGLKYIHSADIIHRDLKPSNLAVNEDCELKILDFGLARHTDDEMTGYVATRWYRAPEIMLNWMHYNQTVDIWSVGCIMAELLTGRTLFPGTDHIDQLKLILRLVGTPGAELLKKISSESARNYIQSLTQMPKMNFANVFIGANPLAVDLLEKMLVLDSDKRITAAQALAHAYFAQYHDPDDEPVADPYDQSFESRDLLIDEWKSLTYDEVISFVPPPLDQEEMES

SMILES | Ki [µM]
CC(C)CC(NC(=O)c1cccc(-n2nc(C(C)(C)C)cc2NC(=O)Nc2cccc3ccccc23)c1)C(N)=O (stereo unspecified) | 0.794
O=C(Nc1cc(-c2c[nH]c3ncccc23)cc(Cl)n1)c1ccccc1 | 3.16
c1ccc(-c2ncc3ccccn23)cc1 | 50.1
O=C(Cc1cccs1)Nc1nc2ccccc2s1 | 3.98
CC(C)(C)c1cc(NC(=O)c2cc3ccccc3s2)n(-c2cccc(OCC(=O)O)c2)n1 | 0.794
Cc1cc(=O)[nH]nc1-c1ccc(NC(=O)Nc2cc(C(F)(F)F)ccc2F)c(Cl)c1 | 0.1
Cc1ccc(-c2cc(-c3cc(Br)ccc3O)[nH]c(=O)c2C#N)s1 | 2.51
COc1c(-c2nc3ccccc3[nH]2)c(O)cc2oc(C)cc(=O)c12 | 3.98
CC(C)(C)c1cc(NC(=O)Nc2cccc3ccccc23)n(-c2cccc(C(=O)N(CCN)CCO)c2)n1 | 0.631
CCC(=O)Nc1ccc(C(=O)N2CCNCC2)c(O)c1 | 1
NC(=O)c1ccc2nc(-c3ccc([N+](=O)[O-])o3)cn2c1 | 3.16
CCN(CCN(C)C)C(=O)c1cccc(-n2nc(C(C)(C)C)cc2NC(=O)Nc2cccc3ccccc23)c1 | 0.794
CC(C)(C)c1cc(NC(=O)c2cc3ccccc3s2)n(-c2ccc(OCC(=O)O)cc2)n1 | 2.51

The compounds below were run against EGFR (human) (UniProt P00533) (assay: not given).
Chain of EGFR (human) (P00533 whole entry, looked up): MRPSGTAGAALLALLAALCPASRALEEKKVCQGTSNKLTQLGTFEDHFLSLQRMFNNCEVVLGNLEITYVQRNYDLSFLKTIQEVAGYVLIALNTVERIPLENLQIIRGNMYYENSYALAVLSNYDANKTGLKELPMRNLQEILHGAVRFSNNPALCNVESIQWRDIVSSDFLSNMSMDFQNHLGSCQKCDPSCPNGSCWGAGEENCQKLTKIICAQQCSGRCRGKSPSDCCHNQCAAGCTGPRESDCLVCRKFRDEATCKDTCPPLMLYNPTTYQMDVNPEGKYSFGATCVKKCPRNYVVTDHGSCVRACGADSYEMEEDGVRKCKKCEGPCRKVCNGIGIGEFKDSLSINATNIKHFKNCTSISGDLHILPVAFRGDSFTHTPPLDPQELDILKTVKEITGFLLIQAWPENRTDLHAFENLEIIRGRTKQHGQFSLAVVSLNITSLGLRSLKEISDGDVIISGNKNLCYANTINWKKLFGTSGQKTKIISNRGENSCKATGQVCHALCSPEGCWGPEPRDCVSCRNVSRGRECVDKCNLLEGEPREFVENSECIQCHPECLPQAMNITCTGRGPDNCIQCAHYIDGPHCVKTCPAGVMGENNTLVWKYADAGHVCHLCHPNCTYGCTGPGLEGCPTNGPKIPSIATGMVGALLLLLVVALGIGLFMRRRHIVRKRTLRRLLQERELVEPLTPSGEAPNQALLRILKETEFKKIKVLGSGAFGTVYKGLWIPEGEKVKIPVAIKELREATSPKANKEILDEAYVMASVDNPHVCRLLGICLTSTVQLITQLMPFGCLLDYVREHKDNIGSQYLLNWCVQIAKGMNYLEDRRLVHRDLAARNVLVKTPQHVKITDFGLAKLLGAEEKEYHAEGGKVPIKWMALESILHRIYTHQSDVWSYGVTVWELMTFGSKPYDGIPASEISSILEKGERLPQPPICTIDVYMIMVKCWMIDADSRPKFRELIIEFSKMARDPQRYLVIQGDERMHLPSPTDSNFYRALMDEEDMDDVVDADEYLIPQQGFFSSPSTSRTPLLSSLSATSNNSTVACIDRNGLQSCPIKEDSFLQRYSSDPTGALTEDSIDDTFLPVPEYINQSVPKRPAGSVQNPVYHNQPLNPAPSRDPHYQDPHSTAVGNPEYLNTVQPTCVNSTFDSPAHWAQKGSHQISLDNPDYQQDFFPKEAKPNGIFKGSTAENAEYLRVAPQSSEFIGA

SMILES | Ki [µM]
COc1cc2ncn(-c3cc(OCc4ccccc4C(F)(F)F)c(C(N)=O)s3)c2cc1OC | 0.251
